Data on three molecules can be found in patent US9868692B2, “Compounds and compositions for intracellular delivery of therapeutic agents” (MODERNATX, Inc., priority 2015, dated 2018).

Series [1] can be described thus: Lipid clearance: % dose remaining in liver after administration of Luc formulations. The class given is in vivo, mice. The note with it: Table 3D.
Series [2] in a line: Residual lipid level in liver of rats (UPLC-MS quantification). The class given is in vivo. Particulars: rat; for concentration at 48 h: intravenous. On the procedure: (§1) To pre-weighed tissues, Milli-Q water was added (900 μL water per 100 mg tissue). Tissues were homogenized using an Omni probe homogenizer until uniform. 50 μL of samples and matrix calibration standards were aliquoted into a 96-well plate. 50 μL of blank matrix for matrix blanks and control blanks were aliquoted. 400 μL IS spiking solution were manually added to all samples except matrix blanks. 400 μL of 50:50 ACN:IPA were manually added to matrix blanks. The plate was covered and the samples vortexed and centrifuged for 5 minutes at >3000 rpm. 200 μL of the samples were transferred into a clean 96-well plate for analysis. […] Detection was based on electrospray ionization (ESI) in positive mode using a Sciex API5500 Mass Spectrometer.
(§2) The expression of hEPO in rats intravenously administered a nanoparticle composition at a dose of 0.2 mpk or 2.0 mpk was measured at 6 hours. […] Liver and spleen levels represent the average values calculated for 3 rats in each group.
(§3) The expression of hEPO and lipid levels in the liver and spleen in rats intravenously administered a nanoparticle composition at a dose of 0.2 mpk was measured at various timepoints. […] Lipids were formulated according to the standard MC3 formulation described above.

The nature of series [3]: Clinical chemistry and hematology after intravenous administration to rat. The class given is in vivo. The note with it: i.v., 2 mpk, 48 h post dose. On the procedure:
Sample formulations of nanoparticle compositions including different lipids were administered intravenously to rat at a dose of 2 mpk. The expression of various clinical markers was evaluated at 48 h post dose and compared to that induced by administration of MC3 formulations or phosphate buffered saline (PBS).
Table 19 summarizes the hEPO expression, IP-10 induction, liver and spleen levels, and alanine aminotransferase (ALT) and aspartate aminotransferase (AST) measured upon intravenous administration of formulations including Compounds 48, 49, and 50 to rat at 0.2 and 2 mpk and hEPO mRNA. hEPO concentrations were measured 6 hours after administration, while cytokine induction and liver and spleen levels were measured 48 hours after administration. hEPO and IP-10 concentrations are presented in pg/ml, while liver levels are provided in ng/g. ALT and AST levels are presented in international units.

Series [4] is described as follows: Residual lipid level in spleen of rats (UPLC-MS quantification). The class given is in vivo. The note with it: rat. On the procedure:
as §1, §2, §3

Series [5] relates to luciferase (Luc) mRNA expression. Briefly: Luc expression (total flux) after intramuscular administration. The class given is in vivo, mice. The note with it: i.m. As for the experimental part:
The numbers 1-7 in this figure correspond to MC3, Compounds 168-170, and 173-175 respectively.
Sample formulations including both modified luciferase (Luc) mRNA and H10 mRNA were prepared and administered intramuscularly and the resulting expression and immunogenicity were evaluated simultaneously. Formulations including compounds according to Formula (I), (IA), (II), (IIa), (IIb), (IIc), (IId) or (IIe) were prepared and administered at doses of 0.001 and 0.01 mpk (e.g., doses of 0.0005 mpk of a formulation including Luc mRNA and a formulation including H10 mRNA or doses of 0.005 mpk of a formulation including Luc mRNA and a formulation including H10 mRNA).
Sample formulations including modified luciferase (Luc) mRNA prepared and administered intramuscularly and the resulting expression and immunogenicity were evaluated simultaneously. Formulations including compounds according to Formula (I), (IA), (II), (IIa), (IIb), (IIc), (IId) or (IIe) were prepared and administered at dose of […] 0.01 mpk.
The fluxes measured upon intravenous and intramuscular administration are compared in Table 6. Fluxes are presented as fold increase over that measured for MC3 formulations.

A further series has as its system hEPO mRNA expression. Description: hEPO expression after intravenous administration to mice. Type of series: in vivo. The note with it: i.v., 0.5 mpk, 3, 6 and 24 hours. As for the experimental part:
Sample formulations of nanoparticle compositions including different lipids are generally first evaluated according to Luc expression in vivo. The activity of several such compositions was further evaluated using an mRNA encoding hEPO. Nanoparticle compositions including Compounds 6, 18, 25, 30, 108-112, 60, and 122, or MC3 were prepared according to Example 2.
The expression of hEPO and cytokine induction in mice intravenously administered a nanoparticle composition at a dose of 0.5 mpk were measured at 3, 6, and 24 hours. […] The expression of hEPO in mice intramuscularly administered a nanoparticle composition from Table 1B at a dose of 0.01 mpk were measured at 3, 6, and 24 hours. […] (see also FIG. 9.)

For `CCCCCC=CCC=CCCCCCCCCC(CCCCCCCCC=CCC=CCCCCC)OC(=O)CCCN(C)C` (stereo not shown) [MC3, heptatriaconta-6,9,28,31-tetraen-19-yl 4-(dimethylamino)butanoate, reference compound], the entries for the “% Dose Remaining in Liver 6h” value in series [1] (first column of this head) and in series [1] (second column of this head) were 80% and 54%, respectively. Also, the “% Lipid Remaining in liver, 48 h 2 mpk” value in series [2] (2 mpk, 48 h, assuming 300 g rat and 15 g liver) is 87%. Further, in series [2] (48 hours after administration (text to Tables 17 and 18)), the “lipid remained in the liver after 48 hours” value was “greater than 60%”. The concentration at 48 h turned out to be 25000 ng/g in series [2] (liver, 0.2 mg/kg, 0.2 mpk, 48 h, average of 3 rats, read-out: Liver level); 285000 ng/g in series [2] (liver, 2 mg/kg, 2 mpk, 48 h, average of 3 rats, read-out: Liver level); 13200 ng/g in series [2] (liver, iv, 0.2 mg/kg, 0.2 mpk, 48 h, read-out: Lipid level in liver); 11300 ng/g in series [2] (liver, iv, 0.2 mg/kg, 0.2 mpk, 48 hours, read-out: Liver level); 141000 ng/g in series [2] (liver, iv, 2 mg/kg, 2 mpk, 48 hours, read-out: Liver level); 9440 ng/g in series [4] (intravenous, 0.2 mg/kg, 0.2 mpk, average of 3 rats, read-out: Spleen level). The concentration at 48 h turned out to be 129000 ng/g in series [4] (intravenous, 2 mg/kg, 2 mpk, average of 3 rats, read-out: Spleen level) and 11600 ng/g in series [4] (iv, 0.2 mg/kg, 0.2 mpk, read-out: Lipid level in spleen). Also, the concentration at 0.25 h in series [2] (liver, iv, 0.2 mg/kg, 0.2 mpk, 0.25 h) turned out to be 13200 ng/g; in series [4] (iv, 0.2 mg/kg, 0.2 mpk, 0.25 h), 4100 ng/g. The concentration at 0.5 h in series [2] (liver, iv, 0.2 mg/kg, 0.2 mpk, 0.5 h) worked out at 20500 ng/g; in series [4] (iv, 0.2 mg/kg, 0.2 mpk, 0.5 h), 6240 ng/g. In addition, the concentration at 1 h in series [2] (liver, iv, 0.2 mg/kg, 0.2 mpk, 1 h) turned out to be 16800 ng/g; in series [4] (iv, 0.2 mg/kg, 0.2 mpk, 1 h) it was 4200 ng/g. In addition, the concentration at 2 h worked out at 26000 ng/g in series [2] (liver, iv, 0.2 mg/kg, 0.2 mpk, 2 h) and 8610 ng/g in series [4] (iv, 0.2 mg/kg, 0.2 mpk, 2 h). In addition, the concentration at 4 h turned out to be 24700 ng/g in series [2] (liver, iv, 0.2 mg/kg, 0.2 mpk, 4 h) and 11900 ng/g in series [4] (iv, 0.2 mg/kg, 0.2 mpk, 4 h). The concentration at 8 h is 32600 ng/g in series [2] (liver, iv, 0.2 mg/kg, 0.2 mpk, 8 h) and 21200 ng/g in series [4] (iv, 0.2 mg/kg, 0.2 mpk, 8 h). The concentration at 24 h in series [2] (liver, iv, 0.2 mg/kg, 0.2 mpk, 24 h) was 33000 ng/g; in series [4] (iv, 0.2 mg/kg, 0.2 mpk, 24 h), 19100 ng/g. For the same molecule, the “Concentration Alanine aminotransferase” value in series [3] is reported as 339. Further, the “Concentration Aspartate aminotransferase” value in series [3] is 325. In series [3], the “Concentration Lymphocytes” value stood at 19976. In addition, the “Concentration Monocytes” value in series [3] stood at 1429. Further, the “Concentration Neutrophils” value in series [3] is 4962.5.

Consider `CCCCCCCCCOC(=O)CCCCCCCN(CCCCO)CCCCCCCC(=O)OC(CCCCCCCC)CCCCCCCC` [Compound 20, Heptadecan-9-yl 8-((4-hydroxybutyl)(8-(nonyloxy)-8-oxooctyl)amino) octanoate], for which the “expression at both dose levels” value in series [5] (0.001 and 0.01 mpk) is on record as “highest expression”. In addition, the “Total flux (p/s) 0.01 mpk Dose” value in series [5] (6 hours, Luc mRNA and H10 mRNA, 0.01 mpk (Table 5A)) worked out at 9.72E+07 p/s.

`CCCCC/C=C\C/C=C\CCCCCCCCN(CCO)CCCCCCCC(=O)OC(CCCCCCCC)CCCCCCCC` [Compound 6, Heptadecan-9-yl 8-((2-hydroxyethyl)((9Z,12Z)-octadeca-9,12-dien-1-yl)amino)octanoate]: the “hEPO concentrations versus MC3 formulations at each time point” value with hEPO mRNA expression is given as “higher hEPO concentrations than MC3 formulations”.
